Patent publication US11559575B2, “Multi-epitopic peptide compounds and vaccines against leishmaniasis” (INSTITUT DE RECHERCHE POUR LE DEVELOPPEMENT, priority 2018, dated 2023)
“Also recorded” adds a separate entry of the source.

Tested on: HLA alleles of class II
Assay: Affinity of epitopes for HLA alleles of class II
Assay type: binding, human
Settings: for Affinity HLA alleles of class II: H2B-II core epitopes; for Affinity HLA alleles of class II / Concatenation affinity for the HLA alleles of class II: Table 1; for Concatenation affinity for the HLA alleles of class II: H2B-II peptides
Text: The multiepitopic peptide compounds (24 to 40-mer), having a high affinity with a maximized number of HLA molecules of class I and of class II, such as the affinities for the alleles HLA of class I and HLA of class II of the epitopes in the peptides of the sequences SEQ ID NO: 22, 23, 65, 66, 69, 73, 77, 96, 97, 137, 138, and 157, 185, have a high immunoprevalent potential corresponding to an optimal vaccine coverage, in particular for the populations concerned. The degree of coverage of the peptide compounds of the invention show a very high added value compared with the peptides of the prior art.

Sequence: GYFLTDEKT (listed as Leishmania infantum) [SEQ ID NO: 147]
- Concatenation affinity for HLA alleles of class II (PSA KC-2.6 core, Table 3): HLA-DRB1*04:01,; also recorded: HLA-DPA1*02:01/; also recorded: DPB1*01:01

Sequence: IRDLDFSNM (listed as Leishmania infantum) [SEQ ID NO: 174]
- Concatenation affinity for HLA alleles of class II (PSA KC-2.7 core, Table 3): HLA-DRB1*01:01,; also recorded: HLA-DRB4*01:01

Sequence: INAQMSMSH (Leishmania major) [SEQ ID NO: 44]
- Affinity HLA alleles of class II: HLA-DRB1*04:01,; also recorded: HLA-DRB1*04:05,; also recorded: HLA-DRB1*09:01,; also recorded: HLA-DRB1*11:01,; also recorded: HLA-DRB1*15:01,; also recorded: HLA-DRB4*01:01,; also recorded: HLA-DRB5*01:01

Sequence: LFTDVHYSE (Leishmania major) [SEQ ID NO: 124]
- Concatenation affinity for HLA alleles of class II (LmlRAB-IIB core, Table 2): HLA-DRB1*03:01,; also recorded: HLA-DRB3*01:01,; also recorded: DPB1*04:01,; also recorded: HLA-DPA1*02:01/; also recorded: HLA-DPA1*03:01/; also recorded: DPB1*04:02

Sequence: KGRSENAIVTSRKVQ (Leishmania major) [SEQ ID NO: 106]
- Concatenation affinity for HLA alleles of class II (LmlRAB-IIB peptides, Table 2): HLA-DRB1*01:01, HLA-DRB1*07:01,; also recorded: HLA-DRB1*11:01, HLA-DRB1*12:01,; also recorded: HLA-DRB5*01:01

Sequence: HSVVGRHLSIVADHM (Leishmania major) [SEQ ID NO: 82]
- Concatenation affinity for HLA alleles of class II (LmLRAB-IIA peptides, Table 2): HLA-DRB1*15:01

Sequence: NAQMSMSHR (Leishmania major) [SEQ ID NO: 46]
- Affinity HLA alleles of class II: HLA-DRB1*01:01

Sequence: KAINAQMSMSHRTMK (Leishmania major) [SEQ ID NO: 39]
- Concatenation affinity for the HLA alleles of class II: HLA-DRB1*07:01, HLA-DRB1*04:01, HLA-DRB1*04:05,; also recorded: HLA-DRB1*09:01, HLA-DRB1*11:01, HLA-DRB1*15:01,; also recorded: HLA-DRB5*01:01, HLA-DRB4*01:01, HLA-DRB1*03:01,

Sequence: AIVTSRKVQEEVFDL (Leishmania major) [SEQ ID NO: 98]
- Concatenation affinity for HLA alleles of class II (LmlRAB-IIB peptides, Table 2): HLA-DRB1*03:01, HLA-DRB1*11:01,; also recorded: HLA-DRB1*12:01

Sequence: VGRHLSIVADHMPHL (Leishmania major) [SEQ ID NO: 85]
- Concatenation affinity for HLA alleles of class II (LmLRAB-IIA peptides, Table 2): HLA-DRB1*03:01,; also recorded: HLA-DRB3*01:01,; also recorded: HLA-DRB1*13:02,; also recorded: HLA-DRB1*15:01,

Sequence: RKVQEEVFDLFTDVH (Leishmania major) [SEQ ID NO: 111]
- Concatenation affinity for HLA alleles of class II (LmlRAB-IIB peptides, Table 2): HLA-DRB1*03:01, HLA-DRB1*04:01,; also recorded: HLA-DPA1*02:01/DPB1*05:01,; also recorded: HLA-DPA1*03:01/DPB1*04:02

Sequence: WNVYVGRSLKAINAQ (Leishmania major) [SEQ ID NO: 30]
- Concatenation affinity for the HLA alleles of class II: HLA-DRB5*01:01, HLA-DRB1*04:05, HLA-DPA1*03:01/; also recorded: DPB1*04:02, HLA-DRB1*01:01, HLA-DRB1*03:01,; also recorded: HLA-DRB1*04:01, HLA-DRB1*11:01, HLA-DRB1*07:01,; also recorded: HLA-DRB9*01:01, HLA-DRB1*15:01, HLA-DPA1*02:01/; also recorded: DPB1*01:01, HLA-DRB1*08:02

Sequence: YFLTDEKTS (listed as Leishmania infantum) [SEQ ID NO: 150]
- Concatenation affinity for HLA alleles of class II (PSA KC-2.6 core, Table 3): HLA-DRB1*04:01,; also recorded: HLA-DRB1*11:01

Sequence: YVGRSLKAINAQMSM (Leishmania major) [SEQ ID NO: 33]
- Concatenation affinity for the HLA alleles of class II: HLA-DRB1*04:01, HLA-DRB1*11:01, HLA-DRB1*08:02,; also recorded: HLA-DRB1*01:01, HLA-DRB1*04:05, HLA-DRB1*07:01,; also recorded: HLA-DRB1*09:01, HLA-DRB4*01:01, HLA-DRB5*01:01,

Sequence: HYSEVSAKT (Leishmania major) [SEQ ID NO: 122]
- Concatenation affinity for HLA alleles of class II (LmlRAB-IIB core, Table 2): HLA-DRB1*04:01

Sequence: IVTSRKVQE (Leishmania major) [SEQ ID NO: 123]
- Concatenation affinity for HLA alleles of class II (LmlRAB-IIB core, Table 2): HLA-DRB1*03:01,; also recorded: HLA-DRB1*08:02,; also recorded: HLA-DRB1*11:01

Sequence: MPSGSDYSHSMIRDL (listed as Leishmania infantum) [SEQ ID NO: 163]
- Concatenation affinity for HLA alleles of class II (PSA KC-2.7 peptides, Table 3): HLA-DRB1*04:05, HLA-DRB1*07:01,; also recorded: HLA-DRB1*09:01, HLA-DRB5*01:01

Sequence: LKAINAQMS (Leishmania major) [SEQ ID NO: 45]
- Affinity HLA alleles of class II: HLA-DRB1*04:05,; also recorded: HLA-DRB1*07:01,; also recorded: HLA-DRB1*08:02,; also recorded: HLA-DRB1*09:01,; also recorded: HLA-DRB1*11:01,; also recorded: HLA-DRB4*01:01,; also recorded: HLA-DRB5*01:01

Sequence: DLFTDVHYSEVSAKT (Leishmania major) [SEQ ID NO: 99]
- Concatenation affinity for HLA alleles of class II (LmlRAB-IIB peptides, Table 2): HLA-DRB1*04:01, HLA-DRB7*01:01,; also recorded: HLA-DPA1*01:03/DPB1*02:01,; also recorded: HLA-DPA1*01/DPB1*04:01, HLA-DPA1*02:01/; also recorded: HLA-DPB1*14:01

Sequence: AQMSMSHRT (Leishmania major) [SEQ ID NO: 42]
- Affinity HLA alleles of class II: HLA-DRB1*07:01

Sequence: SHSMIRDLDGSNMGL (SHSMIRDLDFSNMGL; listed as Leishmania infantum) [SEQ ID NO: 168]
- Concatenation affinity for HLA alleles of class II (PSA KC-2.7 peptides, Table 3): HLA-DRB1*03:01, HLA-DRB1*04:01,; also recorded: HLA-DRB1*04:05, HLA-DRB1*08:02,; also recorded: HLA-DRB1*12:01, HLA-DRB4*01:01

Sequence: RHLSIVADHMPLHDQ (RHLSIVADHMPHLDQ; Leishmania major) [SEQ ID NO: 87]
- Concatenation affinity for HLA alleles of class II (LmLRAB-IIA peptides, Table 2): HLA-DRB3*01:01,; also recorded: HLA-DRB1*03:01,; also recorded: HLA-DRB1*13:02

Sequence: RSWNVYVGRSLKAIN (Leishmania major) [SEQ ID NO: 28]
- Concatenation affinity for the HLA alleles of class II: HLA-DRB5*01:01, HLA-DRB1*01:01, HLA-DRB1*03:01,; also recorded: HLA-DRB1*04:01, HLA-DRB1*11:01, HLA-DRB1*13:02,; also recorded: HLA-DRB1*04:05, HLA-DRB1*07:01, HLA-DRB1*09:01,; also recorded: HLA-DRB1*15:01, HLA-DPA1*02:01/DPB1*01:01,; also recorded: HLA-DRB1*08:02
